The values that follow are results of earlier work, collected in patent publication US20210386729A1, “METHODS FOR TREATING LIVER DISORDERS USING FXR AGONISTS” (NOVARTIS AG, priority 2016, published 2021).

The conditions of the series: clinical studies, PBC or NASH subjects; cited from earlier work.

`CC[C@H]1[C@@H](O)[C@@H]2[C@H](CC[C@]3(C)[C@@H]([C@H](C)CCC(=O)O)CC[C@@H]23)[C@@]2(C)CC[C@@H](O)C[C@@H]12` [OCA, 6α-ethyl-chenodeoxycholic acid]: the pruritus result is on record as “may be associated with increased pruritus”.
